Experimental data taken from ChEMBL document CHEMBL4325857, “Discovery and synthesis of tetrahydropyrimidinedione-4-carboxamides as endothelial lipase inhibitors” (Bioorg Med Chem Lett, 2018).

Assays:
[1] = Metabolic stability in mouse liver microsomes assessed as parent compound remaining after 10 mins; assay type: ADME, Microsome; details: read-out: Stability
[2] = AUC in mouse at 1 mg/kg, iv; assay type: ADME, organism-based; details: in vivo
[3] = Permeability of compound at pH 5.5 by PAMPA; assay type: ADME; details: read-out: permeability
Endothelial lipase [4] = target: T1, Endothelial lipase (Homo sapiens, UniProt Q9Y5X9); experiment: Inhibition of endothelial lipase (unknown origin) using D31-POPC-HDL as substrate after 2 hrs in presence of human serum by LC/MS analysis
T1 sequence (Q9Y5X9 whole entry): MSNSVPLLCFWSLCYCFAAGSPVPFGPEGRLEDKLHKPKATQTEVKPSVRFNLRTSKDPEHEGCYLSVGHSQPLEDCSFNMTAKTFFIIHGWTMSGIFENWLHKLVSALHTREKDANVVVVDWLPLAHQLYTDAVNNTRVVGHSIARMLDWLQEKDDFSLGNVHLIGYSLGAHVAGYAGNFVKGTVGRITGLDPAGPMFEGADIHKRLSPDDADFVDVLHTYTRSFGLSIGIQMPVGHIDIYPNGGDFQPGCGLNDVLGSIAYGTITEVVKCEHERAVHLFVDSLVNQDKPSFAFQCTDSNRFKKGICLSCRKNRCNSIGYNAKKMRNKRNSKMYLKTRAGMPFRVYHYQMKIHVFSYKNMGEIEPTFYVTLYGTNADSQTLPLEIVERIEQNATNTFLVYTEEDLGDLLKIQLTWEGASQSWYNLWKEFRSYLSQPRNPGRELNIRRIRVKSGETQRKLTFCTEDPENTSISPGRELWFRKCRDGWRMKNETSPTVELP

[5] = Permeability of compound at pH 7.4 by PAMPA; assay type: ADME; details: read-out: permeability
[6] = Unbound plasma concentration in mouse at 1 mg/kg, iv; assay type: ADME, organism-based
Endothelial lipase [7] = target: T1, Endothelial lipase; experiment: Inhibition of recombinant human endothelial lipase expressed in African green monkey COS7 cells using HDL as substrate pretreated for 10 mins followed by substrate addition and measured after 30 mins by LC/MS/MS analysis
[8] = Half life in mouse at 1 mg/kg, iv; assay type: ADME, organism-based; details: in vivo
[9] = Oral bioavailability in mouse at 1 mg/kg; assay type: ADME, organism-based; details: in vivo
[10] = AUC in mouse at 1 mg/kg, po; assay type: ADME, organism-based; details: in vivo
[11] = Bioavailability in mouse at 1 mg/kg, […]; assay type: ADME, organism-based; details: in vivo

Compound	remaining at 10 min [1]	Papp [3]	IC50 (Endothelial lipase [4])	Papp [5]	IC50 (Endothelial lipase [7])	further results
CO[C@]1(c2ccc(F)cc2)CC[C@@H](NC(=O)c2[nH]c(=O)[nH]c(=O)c2N)CC1					1.01 µM	
O=C(N[C@H]1CC[C@@H](c2ccccc2)CC1)c1[nH]c(=O)[nH]c(=O)c1NC1CCCC1			436 µM		0.156 µM	
Nc1c(C(=O)N[C@H]2CC[C@@H](c3ccccc3)CC2)[nH]c(=O)[nH]c1=O					0.091 µM	
Nc1c(C(=O)N[C@@H]2CC[C@H](c3ccccc3)C2)[nH]c(=O)[nH]c1=O			231 µM		0.175 µM	
Nc1c(C(=O)N[C@H]2CC[C@@H](c3ccc(OCc4ccccc4)cc3)CC2)[nH]c(=O)[nH]c1=O	85%		35 µM		0.021 µM	
Nc1c(C(=O)N[C@H]2CC[C@@H](c3ccccc3)CC2)n(-c2ccccc2)c(=O)[nH]c1=O					2.35 µM	
Nc1c(C(=O)N[C@@H]2CC[C@H](c3ccccc3)c3ccccc32)[nH]c(=O)[nH]c1=O	92%	28.9 ×10⁻⁶ cm/s	76 µM	32.2 ×10⁻⁶ cm/s	0.05 µM	half-life [8]: 1.4 h; AUC [2]: 11 µM·h

More lines, main results first:

remaining at 10 min [1]	Papp [3]	IC50 (Endothelial lipase [4])	Papp [5]	IC50 (Endothelial lipase [7])	Compound	further results
92%	50.8 ×10⁻⁶ cm/s	> 476 µM	3.5 ×10⁻⁶ cm/s		CCN1CC(C(=O)NC(C)CCc2ccc(Cl)c(Cl)c2)=C(O)C1=O (stereo not drawn)	AUC [2]: 300 µM·h; fraction unbound [6]: 0.023
100%	42.7 ×10⁻⁶ cm/s	25 µM	1.2 ×10⁻⁶ cm/s	0.026 µM	O=C(N[C@H]1CC[C@@H](c2ccccc2)CC1)c1[nH]c(=O)[nH]c(=O)c1O	half-life [8]: 1.1 h; AUC [2]: 5.5 µM·h; fraction unbound [6]: 0.15
	27.7 ×10⁻⁶ cm/s	32 µM	15.8 ×10⁻⁶ cm/s	0.117 µM	O=C(N[C@H]1CC[C@@H](c2ccccc2)CC1)c1[nH]c(=O)n(Cc2ccccc2)c(=O)c1O	
85%		80 µM	76.8 ×10⁻⁶ cm/s	0.017 µM	Nc1c(C(=O)N[C@@H]2CCc3cc(OCc4ccccc4)ccc32)[nH]c(=O)[nH]c1=O	
100%		48 µM		0.059 µM	CC(C)Cn1c(=O)[nH]c(C(=O)N[C@H]2CC[C@@H](c3ccccc3)CC2)c(O)c1=O	
		> 952 µM		0.218 µM	Nc1c(C(=O)N[C@H]2CC[C@@H](c3ccccc3)C2)[nH]c(=O)[nH]c1=O	
79%	96 ×10⁻⁶ cm/s	81 µM	71.2 ×10⁻⁶ cm/s	0.049 µM	Nc1c(C(=O)N[C@@H]2CCCc3c(OCc4ccccc4)cccc32)[nH]c(=O)[nH]c1=O	half-life [8]: 6.7 h; bioavailability [9]: 55%; AUC [2]: 140 µM·h; AUC [10]: 79 µM·h; bioavailability [11]: 55%; fraction unbound [6]: 0.015
		> 143 µM		0.08 µM	O=C(N[C@H]1CC[C@@H](c2ccccc2)CC1)c1[nH]c(=O)n(CCO)c(=O)c1O	
				0.082 µM	CCN1CC(C(=O)N[C@H]2CC[C@@H](c3ccccc3)CC2)=C(O)C1=O	
